Tests used:
[1] = test system: breast cancer cell line (MCF7); test: SRB growth inhibition assay, MCF7; assay type: cell-based; details: Homo sapiens, MCF7 cells, 100 μg/mL, 48 h incubation, read-out: growth inhibition percentage
Protocol: (§1) The antitumor activities of the bis-(organoselanyl urea)aryl agent against all tested cell lines were evaluated by sulphorhodamine-B (SRB) assay. Briefly, cells were seeded at a density of 3×10^3 cells/well in 96-well microtiter plates. They were left to attach for 24 h before incubation with the aforementioned compound. Next, cells were treated with 100 μg/mL for bis-(organoselanyl urea)aryl agent. For each concentration, three wells were used, and incubation was continued for 48 h. DMSO was used as a control vehicle (1% v/v). At the end of incubation, cells were fixed with 20% trichloroacetic acid and stained with 0.4% SRB dye. The optical density (O.D.) of each well was measured spectrophotometrically at 570 nm using an ELISA microplate reader (TECAN Sunrise™, Germany). The mean survival fraction at each drug concentration was calculated as follows: O.D. of the treated cells/O.D. of the control cells. The IC50 (concentration that produces 50% of cell growth inhibition) value of bis-(organoselanyl urea)aryl agent was calculated using sigmoidal dose-response curve-fitting models.

[2] = test system: hepatocellular carcinoma (HEPG2); test: SRB growth inhibition assay, HEPG2; assay type: cell-based; details: Homo sapiens, HEPG2 cells, 100 μg/mL, 48 h incubation, read-out: growth inhibition percentage
Protocol: as §1

[3] = test system: human squamous cell carcinoma of the oral tongue (HN9); test: SRB growth inhibition assay, HN9; assay type: cell-based; details: HN9 cells, 100 μg/mL, 48 h incubation, read-out: growth inhibition percentage
Protocol: as §1

[4] = test system: pharynx squamous carcinoma (FaDu); test: SRB growth inhibition assay, FaDu; assay type: cell-based; details: Homo sapiens, FaDu cells, 100 μg/mL, 48 h incubation, read-out: growth inhibition percentage
Protocol: as §1

[5] = test system: hepatocellular carcinoma (HuH7); test: SRB growth inhibition assay, HuH7; assay type: cell-based; details: Homo sapiens, Huh-7, HuH7 cells, 100 μg/mL, 48 h incubation, read-out: growth inhibition percentage
Protocol: as §1

[6] = test system: normal oral epithelial cell line (OEC); details: 48 h, 100 μg/mL
Protocol: as §1

[7] = test system: human skin fibroblast normal cell (HSF); details: 48 h, 100 μg/mL
Protocol: as §1

[8] = test system: colorectal carcinoma (HCT116); test: SRB growth inhibition assay, HCT116; assay type: cell-based; details: Homo sapiens, HCT-116, HCT116 cells, 100 μg/mL, 48 h incubation, read-out: growth inhibition percentage
Protocol: as §1

melanoma cancer (A375) = test: SRB growth inhibition assay, A375; assay type: cell-based; details: Homo sapiens, A-375, A375 cells, 100 μg/mL, 48 h incubation, read-out: growth inhibition percentage
Protocol: as §1

[9] = test system: non-small cell lung cancer (A549); test: SRB growth inhibition assay, A549; assay type: cell-based; details: Homo sapiens, A549 cells, 100 μg/mL, 48 h incubation, read-out: growth inhibition percentage
Protocol: as §1

SMILES | inhibition at 100 µg/mL [1] | inhibition at 100 µg/mL [2] | inhibition at 100 µg/mL [3] | inhibition at 100 µg/mL [4] | inhibition at 100 µg/mL [5] | growth inhibition percentage (safety, normal cells) [6] | growth inhibition percentage (safety, normal cells) [7] | inhibition at 100 µg/mL [8] | inhibition at 100 µg/mL (melanoma cancer (A375)) | inhibition at 100 µg/mL [9]
C[Se]c1ccc(NC(=O)Nc2ccc(Cc3ccc(NC(=O)Nc4ccc([Se]C)cc4)cc3)cc2)cc1 [HB190, 1,1′-(methylenebis(4,1-phenylene))bis(3-(4-(methylselanyl)phenyl)urea)] | 67.7% | 76.2% | 74% | 77.3% | 88.6% | 7.32% | 9.76% | 85.3% | 66.8% | 74.4%
COc1cccc2c1C(=O)c1c(O)c3c(c(O)c1C2=O)C[C@@](O)(C(=O)CO)C[C@@H]3O[C@H]1C[C@H](N)[C@H](O)[C@H](C)O1 [doxorubicin, reference compound] | 58.6% | 55.6% | 51.7% | 79.3% | 68% |  |  | 64.3% | 78.2% | 39.1%

From patent US12466790B1, “Bis urea-based organoselenium compound and method for treating cancer” (IMAM MOHAMMAD IBN SAUD ISLAMIC UNIVERSITY, priority 2024, dated 2025)
